Reference: patent publication US12421211B2, “Heterocyclic compounds” (Hoffmann-La Roche Inc., priority 2021, dated 2025)
Counter-ions that a name gives are not always drawn.

The compounds below were run on Acinetobacter baumannii ATCC17961 (assay: Antimicrobial susceptibility testing: 90% growth inhibitory concentration (IC90) determination). Settings: Acinetobacter baumannii, ATCC17961, 16 h, 90% growth inhibitory concentration, Acinetobacter baumannii ATCC17961, Iso-Sensitest broth, OD 600 nm over 16 h; read-out: ATCC 17961 IC90.
Assay type: cell-based
Outline: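 A. baumannii ATCC17961 at ~5×10^5 CFU/ml in Iso-Sensitest broth exposed to 10-point twofold dilutions (e.g. 50–0.097 μM final), 35±2° C. OD600 read every 20 minutes over 16h; IC50 and IC90 derived from inhibition during logarithmic growth.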

Structure (SMILES)	IC90
COCCn1ncc(-c2ccc(-c3cnc(C(=O)Nc4ccc(C(=O)N[C@H]5[C@@H]6CN(C(=O)N[C@@H]7C[N+](C)(C)C[C@H]7O)C[C@@H]65)c(Cl)c4)n3C)c(F)c2F)c1C [Example F66, (1S,5R)-6-[[2-chloro-4-[[5-[2,3-difluoro-4-[1-(2-methoxyethyl)-5-methyl-pyrazol-4-yl]phenyl]-1-methyl-imidazole-2-carbonyl]amino]benzoyl]amino]-N-[(3R,4R)-4-hydroxy-1,1-dimethyl-pyrrolidin-1-ium-3-yl]-3-azabicyclo[3.1.0]hexane-3-carboxamide; formate]	0.029 µM
COCCn1nc(C)c(-c2ccc(-c3cnc(C(=O)Nc4ccc(C(=O)N5CCN(C(=O)C6CC[N+](C)(C)CC6)CC5)c(Cl)c4)n3C)c(F)n2)c1C [Example F67, N-[3-chloro-4-[4-(1,1-dimethylpiperidin-1-ium-4-carbonyl)piperazine-1-carbonyl]phenyl]-5-[2-fluoro-6-[1-(2-methoxyethyl)-3,5-dimethyl-pyrazol-4-yl]-3-pyridyl]-1-methyl-imidazole-2-carboxamide; formate]	1.1 µM
Cc1nn(CC(=O)NC(C)C)cc1-c1ccc(-c2cnc(C(=O)Nc3ccc(C(=O)N4CCN(C(=O)C5CC[N+](C)(C)CC5)CC4)c(Cl)c3)n2C)c(F)c1F [Example G1, N-[3-chloro-4-[4-(1,1-dimethylpiperidin-1-ium-4-carbonyl)piperazine-1-carbonyl]phenyl]-5-[2,3-difluoro-4-[1-[2-(isopropylamino)-2-oxo-ethyl]-3-methyl-pyrazol-4-yl]phenyl]-1-methyl-imidazole-2-carboxamide; formate]	0.29 µM

Next, values leading:

IC90	Structure (SMILES)
0.32 µM	Cc1nn(CC(=O)NC(C)(C)C)cc1-c1ccc(-c2cnc(C(=O)Nc3ccc(C(=O)N4CCN(C(=O)C5CC[N+](C)(C)CC5)CC4)c(Cl)c3)n2C)c(F)c1F [Example G2, 5-[4-[1-[2-(tert-butylamino)-2-oxo-ethyl]-3-methyl-pyrazol-4-yl]-2,3-difluoro-phenyl]-N-[3-chloro-4-[4-(1,1-dimethylpiperidin-1-ium-4-carbonyl)piperazine-1-carbonyl]phenyl]-1-methyl-imidazole-2-carboxamide; formate]
0.1 µM	Cc1nn(CC(=O)NC23CC(C2)C3)cc1-c1ccc(-c2cnc(C(=O)Nc3ccc(C(=O)N4CCN(C(=O)C5CC[N+](C)(C)CC5)CC4)c(Cl)c3)n2C)c(F)c1F [Example G3, 5-[4-[1-[2-(1-bicyclo[1.1.1]pentanylamino)-2-oxo-ethyl]-3-methyl-pyrazol-4-yl]-2,3-difluoro-phenyl]-N-[3-chloro-4-[4-(1,1-dimethylpiperidin-1-ium-4-carbonyl)piperazine-1-carbonyl]phenyl]-1-methyl-imidazole-2-carboxamide; formate]
0.14 µM	Cc1nn(CC(=O)Nc2ccccc2F)cc1-c1ccc(-c2cnc(C(=O)Nc3ccc(C(=O)N4CCN(C(=O)C5CC[N+](C)(C)CC5)CC4)c(Cl)c3)n2C)c(F)c1F [Example G6, N-[3-chloro-4-[4-(1,1-dimethylpiperidin-1-ium-4-carbonyl)piperazine-1-carbonyl]phenyl]-5-[2,3-difluoro-4-[1-[2-(2-fluoroanilino)-2-oxo-ethyl]-3-methyl-pyrazol-4-yl]phenyl]-1-methyl-imidazole-2-carboxamide; formate]

Same assay, conditions: Acinetobacter baumannii, ATCC17961, 16 h, read-out: ATCC 17961 IC90

Structure (SMILES)	IC90
Cc1nn(CC(=O)NC23CC(C#N)(C2)C3)cc1-c1ccc(-c2cnc(C(=O)Nc3ccc(C(=O)N4CCN(C(=O)C5CC[N+](C)(C)CC5)CC4)c(Cl)c3)n2C)c(F)c1F [Example G4, N-[3-chloro-4-[4-(1,1-dimethylpiperidin-1-ium-4-carbonyl)piperazine-1-carbonyl]phenyl]-5-[4-[1-[2-[(3-cyano-1-bicyclo[1.1.1]pentanyl)amino]-2-oxo-ethyl]-3-methyl-pyrazol-4-yl]-2,3-difluoro-phenyl]-1-methyl-imidazole-2-carboxamide; formate]	0.19 µM
